Counter-ions that a name gives are not always drawn.
Tests used:
[1] = molecular target: T1, human V1b receptors (Homo sapiens, UniProt P47901); test: Displacement of [3H]-AVP at V1b receptors (binding affinity); settings: [3H]-AVP displacement
T1 sequence (P47901 1-424): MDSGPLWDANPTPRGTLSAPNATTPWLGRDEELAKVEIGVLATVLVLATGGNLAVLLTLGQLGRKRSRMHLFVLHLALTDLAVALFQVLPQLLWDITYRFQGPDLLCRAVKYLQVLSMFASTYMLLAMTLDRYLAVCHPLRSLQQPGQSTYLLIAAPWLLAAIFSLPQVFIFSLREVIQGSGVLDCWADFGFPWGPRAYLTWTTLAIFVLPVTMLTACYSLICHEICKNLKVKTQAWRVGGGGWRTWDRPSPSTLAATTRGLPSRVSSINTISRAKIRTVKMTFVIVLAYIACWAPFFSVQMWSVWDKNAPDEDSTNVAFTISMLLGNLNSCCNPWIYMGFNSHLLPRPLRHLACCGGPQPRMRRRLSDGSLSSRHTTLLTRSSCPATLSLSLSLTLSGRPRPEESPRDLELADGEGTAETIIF
Procedure: The affinity of the compounds of formula (I) according to the invention for the arginine-vasopressin V1b receptors was determined in vitro using the method described by Y. de Keyser et al. in Febs Letters, 1994, 356, 215-220. This method consists in studying in vitro the displacement of tritiated arginine-vasopressin ([3H]-AVP) at the V1b receptors present on cell preparations carrying the human V1b receptors.

[2] = molecular target: human V2 receptors (Homo sapiens, UniProt P30518); test: Affinity for vasopressin V2 receptors; assay type: binding; settings: for IC50: affinity at human V2 receptors
From the text: Th affinity of the compounds of formula (I) according to the invention for the vasopressin V2 receptors was also studied (method described by M. Birnbaumer et al. in Nature (Lond.), 1992, 357, 333-335).

[3] = molecular target: T2, human V1a receptors (Homo sapiens, UniProt P37288); test: Displacement of [3H]-AVP at V1a receptors (binding affinity); settings: for IC50: affinity at human V1a receptors, [3H]-AVP displacement; for selectivity for the human V1a and V1b receptors for AVP (in words): versus V2 / oxytocin receptors
Procedure: The affinity of the compounds of formula (I) according to the invention for the arginine-vasopressin V1a receptors was determined in vitro using the method described by M. Thibonnier et al., J. Biol. Chem., 1994, 269, 3304-3310. This method consisted in studying in vitro the displacement of tritiated arginine-vasopressin ([3H]-AVP) at the V1a receptors present on membrane or cell preparations carrying the rat or human V1a receptors.

[4] = molecular target: T3, human uterine oxytocin receptor (Homo sapiens, UniProt P30559); test: Displacement of radioiodinated oxytocin analogue at oxytocin receptors; assay type: binding; settings: for IC50: affinity at human oxytocin receptors
T3 construct: expressed in transfected cells
T3 sequence (P30559 1-389): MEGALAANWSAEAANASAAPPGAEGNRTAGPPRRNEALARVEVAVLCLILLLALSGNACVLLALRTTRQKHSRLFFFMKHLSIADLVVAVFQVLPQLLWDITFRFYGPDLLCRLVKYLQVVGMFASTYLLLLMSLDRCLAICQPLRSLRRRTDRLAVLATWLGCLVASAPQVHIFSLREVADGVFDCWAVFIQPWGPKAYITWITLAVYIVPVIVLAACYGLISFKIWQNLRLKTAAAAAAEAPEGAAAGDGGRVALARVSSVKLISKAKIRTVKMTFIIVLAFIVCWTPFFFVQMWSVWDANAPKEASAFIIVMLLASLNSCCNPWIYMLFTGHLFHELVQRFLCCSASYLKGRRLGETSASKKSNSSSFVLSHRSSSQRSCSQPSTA
Procedure: The affinity of the compounds according to the invention for the oxytocin receptors was determined in an in vitro binding test using the method described by J. Elands et al. in Eur. J. Pharmacol., 1987, 147, 197-207. This method consists in studying in vitro the displacement of a radioiodinated analogue of oxytocin at the oxytocin receptors in a membrane preparation of cells transfected with the human uterine oxytocin receptor.

[5] = molecular target: T2, human V1a receptors; test: Intracellular calcium measurement (FLIPR) on cells expressing V1a receptors; assay type: cell-based; settings: FLIPR and platelet aggregation tests; blocking effects caused by arginine-vasopressin
Procedure: The agonist or antagonist character of the compounds is determined in vitro in a test for measuring intracellular calcium (FLIPR) on cells expressing the human V1a receptors according to the general technique described in Sullivan et al, Methods Mol. Biol., 1999, 114, 125-133, using 1 μM Fluo-4 AM and in an AVP-induced platelet aggregation test on human PRP (platelet rich plasma) according to the methodology described in J. Clin. Invest., 1993, 92, 224.231. The compounds are preincubated for 30 minutes before the addition of arginine vasopressin in order to determine the agonist and antagonist properties of these molecules.

T2 sequence (P37288 whole entry): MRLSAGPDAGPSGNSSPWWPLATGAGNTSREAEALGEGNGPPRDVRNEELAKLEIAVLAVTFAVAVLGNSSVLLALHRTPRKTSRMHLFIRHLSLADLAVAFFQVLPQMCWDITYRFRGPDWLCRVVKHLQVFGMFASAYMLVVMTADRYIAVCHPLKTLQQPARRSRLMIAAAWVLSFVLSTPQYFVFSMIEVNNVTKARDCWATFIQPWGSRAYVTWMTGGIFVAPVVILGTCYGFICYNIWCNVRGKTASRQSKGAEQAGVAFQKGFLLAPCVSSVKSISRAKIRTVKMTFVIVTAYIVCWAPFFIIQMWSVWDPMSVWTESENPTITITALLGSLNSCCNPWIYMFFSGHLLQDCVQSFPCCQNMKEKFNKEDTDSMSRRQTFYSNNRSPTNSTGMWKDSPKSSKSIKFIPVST
Chain of human V2 receptors (P30518 whole entry): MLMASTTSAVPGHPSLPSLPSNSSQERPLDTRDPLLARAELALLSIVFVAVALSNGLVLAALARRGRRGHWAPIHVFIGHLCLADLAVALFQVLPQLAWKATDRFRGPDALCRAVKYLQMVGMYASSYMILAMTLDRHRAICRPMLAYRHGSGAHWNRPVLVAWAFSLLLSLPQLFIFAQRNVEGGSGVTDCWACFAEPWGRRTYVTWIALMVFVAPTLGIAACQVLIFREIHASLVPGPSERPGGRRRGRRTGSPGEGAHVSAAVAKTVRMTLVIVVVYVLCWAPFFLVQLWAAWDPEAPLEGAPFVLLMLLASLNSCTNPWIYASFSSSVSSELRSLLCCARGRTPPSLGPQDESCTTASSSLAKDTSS

COc1ccc2c(n1)C(CCCN1CCCCC1)(c1ccccc1F)C(=O)N2S(=O)(=O)c1ccc(OC(C)C)cc1 (centres unmarked) (as salt: HCl)
melting point: 157 °C

COc1ccc2c(n1)C(CCCN1CCCCC1)(c1ccccc1F)C(=O)N2S(=O)(=O)c1ccc(OC(F)F)cc1 (centres unmarked) (as salt: HCl)
melting point: 133 °C

COc1ccc2c(n1)C(CCCN1CCCCC1)(c1ccccc1F)C(=O)N2S(=O)(=O)c1cccc(Cl)c1 (centres unmarked) (as salt: HCl)
melting point: 148 °C

COc1ccc2c(n1)C(CCCN1CCNCC1)(c1ccccc1F)C(=O)N2S(=O)(=O)c1ccc(OC(C)C)cc1 (centres unmarked) (as salt: HCl) [Compound No. 2, 3-(2-fluorophenyl)-1-[(4-isopropoxyphenyl)sulphonyl]-5-methoxy-3-(3-piperazin-1-ylpropyl)-1,3-dihydro-2H-pyrrolo[3,2-b]pyridin-2-one]
melting point: 123 °C

COc1ccc2c(n1)C(CCCN1CCNCC1)(c1ccccc1F)C(=O)N2S(=O)(=O)c1cccc(Cl)c1 (centres unmarked) (as salt: HCl) [compound 4, 1-[(3-chlorophenyl)sulphonyl]-3-(2-fluorophenyl)-5-methoxy-3-(3-piperazin-1-ylpropyl)-1,3-dihydro-2H-pyrrolo[3,2-b]pyridin-2-one]
melting point: 177 °C

COc1ccc2c(n1)C(CCCN1CCN(C)CC1)(c1ccccc1F)C(=O)N2S(=O)(=O)c1ccc(OC(C)C)cc1 (centres unmarked) (as salt: HCl) [compound 11, 3-(2-fluorophenyl)-1-[(4-isopropoxyphenyl)sulphonyl]-5-methoxy-3-[3-(4-methylpiperazin-1-yl)propyl]-1,3-dihydro-2H-pyrrolo[3,2-b]pyridin-2-one]
melting point: 190 °C

COc1ccc2c(n1)C(CCCCN1CCNCC1)(c1ccccc1F)C(=O)N2S(=O)(=O)c1ccc(OC(C)C)cc1 (centres unmarked) (as salt: HCl) [compound 14, 3-(2-fluorophenyl)-1-[(4-isopropoxyphenyl)sulphonyl]-5-methoxy-3-(4-piperazin-1-ylbutyl)-1,3-dihydro-2H-pyrrolo[3,2-b]pyridin-2-one]
melting point: 133 °C

COc1ccc2c(n1)C(CCCCN1CCN(C)CC1)(c1ccccc1F)C(=O)N2S(=O)(=O)c1ccc(OC(C)C)cc1 (centres unmarked) (as salt: salt)
melting point: 52 °C

COc1ccc2c(n1)C(CCCCN1CCNCC1)(c1ccccc1F)C(=O)N2S(=O)(=O)c1ccc(OC(C)C)cc1 (racemic) (as salt: HCl) [Compound No. 10, 3-(2-Fluorophenyl)-1-[(4-isopropoxyphenyl)sulphonyl]-5-methoxy-3-(4-piperazin-1-ylbutyl)-1,3-dihydro-2H-pyrrolo[3,2-b]pyridin-2-one]
melting point: 210 °C

Cc1ccc2c(n1)C(CCCN1CCNCC1)(c1ccccc1F)C(=O)N2S(=O)(=O)c1ccc(OC(C)C)cc1.Cl (single isomer, unassigned)
melting point: 150 °C

COc1cccc(S(=O)(=O)N2C(=O)C(CCCN3CCNCC3)(c3ccccc3F)c3nc(OC)ccc32)c1.Cl (single isomer, unassigned)
melting point: 178 °C

COc1cccc(S(=O)(=O)N2C(=O)C(CCCN3CCCCC3)(c3ccccc3F)c3nc(OC)ccc32)c1.Cl (single isomer, unassigned)
melting point: 148 °C

COc1ccc2c(n1)C(CCCN1CCNCC1)(c1ccccc1F)C(=O)N2S(=O)(=O)c1ccc(OC(C)C)cc1 (centres unmarked) [Compound No. 2, 3-(2-fluorophenyl)-1-[(4-isopropoxyphenyl)sulphonyl]-5-methoxy-3-(3-piperazin-1-ylpropyl)-1,3-dihydro-2H-pyrrolo[3,2-b]pyridin-2-one]
IC50 [1]: 350 nM
IC50 [2]: 120 nM
IC50 [3]: 0.82 nM
IC50 [4]: 71 nM

CCN(CC)C(=O)Nc1ccc(S(=O)(=O)N2C(=O)C(NCCC3CCNCC3)(c3ccccc3Cl)c3cc(Cl)c(Cl)cc32)cc1 (stereo not drawn) [Compound α, 3-[4-[[5,6-dichloro-3-(2-chlorophenyl)-2-oxo-3-[(2-piperidin-4-ylethyl)amino]-2,3-dihydro-1H-indol-1-yl]sulphonyl]phenyl]-1,1-diethylurea]
IC50 [1]: 210 nM
affinity for the human V2 receptors for AVP (in words) [2]: good affinity
IC50 [2]: 19 nM
affinity for the human V1a receptors for AVP (in words) [3]: good affinity
IC50 [3]: 23 nM
selectivity for the human V1a and V1b receptors for AVP (in words) [3]: not therefore selective
affinity for the oxytocin receptors (in words) [4]: good affinity
IC50 [4]: 100 nM

CCN(CC)C(=O)Nc1ccc(S(=O)(=O)N2C(=O)C(NCCC3CCNCC3)(c3ccccc3Cl)c3cc(Cl)c(C)cc32)cc1 (stereo not drawn) [Compound β, 3-[4-[[5-chloro-3-(2-chlorophenyl)-6-methyl-2-oxo-3-[(2-piperidin-4-ylethyl)amino]-2,3-dihydro-1H-indol-1-yl]sulphonyl]phenyl]-1-diethylurea]
IC50 [1]: 180 nM
affinity for the human V2 receptors for AVP (in words) [2]: good affinity
IC50 [2]: 13 nM
affinity for the human V1a receptors for AVP (in words) [3]: good affinity
IC50 [3]: 18 nM
selectivity for the human V1a and V1b receptors for AVP (in words) [3]: not therefore selective
IC50 [4]: 69 nM

COc1ccc2c(n1)C(CCCN1CCNCC1)(c1ccccc1F)C(=O)N2S(=O)(=O)c1ccc(OC(C)C)cc1 (centres unmarked) [No. 2]
agonist or antagonist character [5]: V1a receptor antagonists

COc1ccc2c(n1)C(CCCN1CCNCC1)(c1ccccc1F)C(=O)N2S(=O)(=O)c1cccc(Cl)c1 (centres unmarked) [No. 4]
agonist or antagonist character [5]: V1a receptor antagonists

COc1ccc2c(n1)C(CCCN1CCNCC1)(c1ccccc1F)C(=O)N2S(=O)(=O)c1cccc(Cl)c1 (centres unmarked) [compound 4, 1-[(3-chlorophenyl)sulphonyl]-3-(2-fluorophenyl)-5-methoxy-3-(3-piperazin-1-ylpropyl)-1,3-dihydro-2H-pyrrolo[3,2-b]pyridin-2-one]
IC50 [1]: > 1000 nM
IC50 [2]: > 1000 nM
IC50 [3]: 8.9 nM
IC50 [4]: > 1000 nM

COc1ccc2c(n1)C(CCCN1CCN(C)CC1)(c1ccccc1F)C(=O)N2S(=O)(=O)c1ccc(OC(C)C)cc1 (centres unmarked) [compound 11, 3-(2-fluorophenyl)-1-[(4-isopropoxyphenyl)sulphonyl]-5-methoxy-3-[3-(4-methylpiperazin-1-yl)propyl]-1,3-dihydro-2H-pyrrolo[3,2-b]pyridin-2-one]
IC50 [1]: > 1000 nM
IC50 [2]: 210 nM
IC50 [3]: 7.1 nM
IC50 [4]: 100 nM

— patent US8324214B2, “1,3-dihydro-2H-pyrrolo[3,2-bpyridin-2-one derivatives, preparation thereof and therapeutic uses thereof” (Sanofi, priority 2008, dated 2012)
